Measured values published in patent US20030083385A1, “Use of benzenesulfonyl (thioureas or ure as) for treating of septic shock or gene ralized inflammatory syndrome” (priority 2001, published 2003).
Structures can show the parent of a compound that is named as a salt.

Legend:
[1] = tested on: anesthetized pigs given lipopolysaccharide (LPS) as a bolus; assay: Endotoxin (LPS) model in anesthetized pigs, LPS bolus; assay type: in vivo, pig; conditions: LPS 1 μg/kg bolus, n=5, LPS raised pressure from 30.6±0.7 to 67.2±6.0 mm Hg, compound 5 mg/kg intravenously, p<0.01
Excerpt: (§1) The suitability of a compound of formula I for treating pathological changes in blood pressure associated with septic shock or occurring in the generalized inflammatory syndrome (SIRS) state can be established, for example, in the pharmacological model in the pig that is described further below (endotoxin model, synonym: LPS model (LPS=lipopolysaccharide)). The effect can also be examined, for example, in rats, mice, cats, guinea pigs, rabbits, dogs or monkeys.
In another experimental approach performed on anesthetized pigs, 1 μg/kg of LPS was administered as a bolus (n=5). This led, within 15-20 min, to a dangerous increase in the systolic pulmonary arterial pressure from 30.6±0.7 mm Hg to 67.2±6.0 mm Hg.

[2] = tested on: anesthetized pigs infused continuously with lipopolysaccharide (LPS); assay: Endotoxin (LPS) model in anesthetized pigs, continuous LPS infusion; assay type: in vivo, pig
Excerpt: as §1
Anesthetized pigs were infused continuously with lipopolysaccharide (LPS) (0.15 μg/kg/h; n=7). This led to a decrease in the peripheral resistance. After 3.9 hours, 1-(5-(2-(5-chloro-2-methoxybenzamido)ethyl)-2-(2-methoxyethoxy)phenyl-sulfonyl)-3-methylthiourea sodium salt was administered at a dose of 5-10 mg/kg (intravenously; aqueous solution). […] The peripheral resistance, which under the effect of the endotoxin had fallen to 60.8±4.1% of the starting value that had been present prior to administering the endotoxin, rose to 80.8±5.1% of the starting value that had been present prior to administering the endotoxin (p<0.0001).

CNC(=S)NS(=O)(=O)c1cc(CCNC(=O)c2cc(Cl)ccc2OC)ccc1OCCOC [1-(5-(2-(5-chloro-2-methoxybenzamido)ethyl)-2-(2-methoxyethoxy)phenyl-sulfonyl)-3-methylthiourea sodium salt]
systolic pulmonary arterial pressure after administration [1]: 46.6±4.0 mm Hg
rise of peripheral mean arterial blood pressure ([2]; LPS 0.15 μg/kg/h continuous infusion, n=7, compound 5-10 mg/kg intravenously (aqueous solution) after 3.9 hours, p<0.001): 19.6±3.2 mm Hg
peripheral resistance after administration ([2]; LPS 0.15 μg/kg/h continuous infusion, n=7, compound 5-10 mg/kg intravenously after 3.9 hours, had fallen to 60.8±4.1% under endotoxin, p<0.0001): 80.8±5.1 % of the starting value
effect when administered as an infusion ([2]; LPS model, infusion, total dose 5-10 mg/kg, seen already after a dose of 1-2.5 mg/kg had been infused): marked improvement
